Assay results published in EP2077274A1, “Synthetic analogs of human beta-defensins having antimicrobial, antiviral and chemotactic activity” (Ceinge Biotecnologie Avanzate s.c. a r.l., priority 2008, dated 2009).

Tests used:
[1] = system: Enterococcus faecalis ATCC 29212; assay: Colony-forming unit (CFU) assay of antibacterial activity with NaCl dependence; format: cell-based; conditions: for antibacterial activity, inhibition by NaCl: 50 mM NaCl; for antibacterial activity at 200 mM NaCl: p<0.001 versus hBD3 in the same conditions; for antibacterial activity compared to wild-type hBD3: peptide 12.5 µM, p<0.01; for antibacterial activity at 200 mM NaCl / antibacterial activity compared to wild-type hBD3: 200 mM NaCl
Method: (§1) Colony-forming unit (CFU) assay of the antibacterial activity of the peptides against P.aeruginosa ATCC (American Type Culture Collection, Manassas, VA, USA) 27853, Enterococcus faecalis ATCC 29212 and Escherichia coli ATCC 25922 was performed. The strains were grown in aerobic conditions in tryptic soy broth (Difco Laboratories, Detroit, MI, USA) at 37°C. Cells from exponential-phase cultures were centrifuged, washed and suspended to a density of 1 x 10^5 CFU/mL in sterile 10 mM potassium phosphate buffer, pH 7.4, and incubated in the presence of the peptides. The incubation time was 2 h at 37°C. […] For salt dependence assay, NaCl in a range of concentrations potentially present in the airway surface fluid of normal subjects and CF patients (33), i.e., 0, 50, 100 and 200 mM NaCl, were included in the incubation buffer. The cells were then diluted serially in the same buffer, spread on tryptone-yeast (Difco Laboratories) plates and the colonies were counted after 18 h at 37°C. Each assay was performed in triplicate. Bactericidal activity (mean and SD of three assays) is expressed as the ratio between colonies counted and the number of colonies on a control plate.

[2] = system: Escherichia coli ATCC 25922; assay: as above; format: cell-based; conditions: for antibacterial activity, inhibition by NaCl: 50 mM NaCl; for antibacterial activity at 200 mM NaCl: p<0.001 versus hBD3 in the same conditions; for antibacterial activity compared to wild-type hBD3: peptide 12.5 µM, p<0.01; for antibacterial activity at 200 mM NaCl / antibacterial activity compared to wild-type hBD3: 200 mM NaCl
Method: as §1

P.aeruginosa ATCC 27853 = assay: as above; format: cell-based; conditions: for antibacterial activity, inhibition by NaCl: 50 mM NaCl; for antibacterial activity at 200 mM NaCl: p<0.001 versus hBD3 in the same conditions; for antibacterial activity at 200 mM NaCl / antibacterial activity compared to wild-type hBD3: 200 mM NaCl
Method: as §1

neutrophils = assay: Chemotaxis assay (leukocyte migration, calcein fluorescence); format: cell-based, human; conditions: for chemotactic activity compared to wild-type hBD1: peptide 1.25 µM
Method: (§2) Preparation of leukocytes-Monocytes and neutrophils were isolated as described in the StemSep Cell Technical Manual (Stem Cell Technologies, Vancouver, Canada). Briefly, to obtain neutrophils, buffy coats were diluted 1:20 in NH4Cl supplemented with 2 mM EDTA and incubated on ice for 20 min. Cell suspensions were centrifuged for 10 min at 600 X g at room temperature with the brake off and washed three times with phosphate buffered saline (PBS) supplemented with 2% foetal bovine serum and 2 mM EDTA. Cell viability was assessed by analysis of light scatter properties, and cell count was performed using a logical gate strategy based on Trucount tubes (Becton-Dickinson, San Jose, CA, USA). Neutrophils were purified from lysed buffy coats using StemSep negative selection system. To this purpose, 100x10^6 mononuclear cells from lysed buffy coats were incubated with 100 µL of custom antibody cocktail for human granulocytes enrichment (Stem Cell Technologies) for 45 min on ice. In addition, cell suspensions were incubated with 60 µL of magnetic colloid for 30 minutes on ice. Finally, the samples were run through a 0.3-inch column matrix in a negative selection system in which the unwanted cells were immunomagnetically labelled and bound to the magnetic column. Neutrophils, after the separation, were collected in the column flowthrough without antibody bound to their surface. In order to obtain monocytes, human buffy coats were layered over a Ficoll-Paque density gradient and spun at 600 X g for 30 min with the brake off. The mononuclear cell-rich fractions were washed three times with PBS supplemented with 2% foetal bovine serum (FBS) and 2 mM EDTA. Cell viability was assessed by analysis of light scatter properties, and cell count was performed using a logical gate strategy based on Trucount tubes (Becton-Dickinson). A custom antibody cocktail for human monocyte enrichment (Stem Cells Technologies) was used for immunomagnetic negative selection of monocytes. Mononuclear cells were incubated as above described for neutrophils. Both neutrophils and monocytes were resuspended in 5.0 mL of RPMI-1640 (Sigma-Aldrich, St Louis, MO, USA) without phenol red containing 10% heat-treated FBS. Calcein AM (Molecular Probes, Eugene, OR, USA) was added to the cell suspensions (5.0 mL) at a concentration of 5 µg/mL and the cells were incubated for 30 min at 37°C. Cell suspensions were washed twice with PBS and then resuspended in RPMI-FBS to the desired concentration.
(§3) Measurement of leukocytes migration-The chemotaxis assay of monocytes and neutrophils (90-95% of purity) was performed in 96-well disposable chemotaxis chambers (Neuroprobe, Gaithersburg, MD, USA) using polyvinyl-pyrrolidone-free polycarbonate membranes with an […] pore size for monocytes and with a […] pore size for neutrophils. Chemotaxis was measured by fluorescence detection, using the calcein fluorescence signal. The fluorescence was read in a microplate fluorescence reader (Victor 3 1420 Multilabel Counter, Perkin Elmer) with excitation/emission wave-length settings of 485/530 nm. We calculated the migration index as the ratio between the sample mean fluorescence (after subtraction of the negative control mean fluorescence)/positive control mean fluorescence. Each assay was performed in quadruplicate.

monocytes = assay: as above; format: cell-based, human; conditions: for chemotactic activity compared to wild-type hBD1: peptide 1.25 µM
Method: as §2, §3

HSV-1 = HSV-1 infectivity plaque assay on Vero cell monolayers (co-exposure, virus pre-treatment, cell pre-exposure); format: cell-based; conditions: for % of infectivity: mean and SD of 3 replicates; for inhibition of HSV infectivity: peptide 50 µM, reduced form
Method: Vero cells were grown in Dulbecco's modified Eagle's medium (DMEM) supplemented with 10% foetal calf serum. HSV-1 carrying a IacZ gene driven by the cytomegalovirus (CMV) IE-1 promoter to express beta-galactosidase was propagated as described (33). Peptides were dissolved in DMEM with serum and used at different concentrations. All experiments were conducted in parallel with scrambled peptides and no-peptide controls. […] Non-penetrated viruses were inactivated by citrate buffer at pH 3.0 after the 45 min incubation with cells at 37°C. The cells were then incubated for 48 h at 37°C in DMEM supplemented with carboxymethylcellulose (CMC). Monolayers were fixed, stained with 5-bromo-4-chloro-3-indolyl-beta-D-galactopyranoside (X-gal) and plaque numbers were scored. Experiments were performed in triplicate and the percentage of inhibition was calculated with respect to no-peptide control experiments. ii) For "virus pre-treatment" experiments, approximately 2 x 10^4 plaque forming units (PFU) of HSV-1 were incubated in the presence of 20 µM of peptides for 45 min at 37°C, then titrated on Vero cell monolayers. iii) For "cell pre-exposure" experiments, Vero cells were incubated with 20 µM of peptides for 30 min at 4°C. Peptides were removed, and cells were washed with phosphate-buffered saline before being infected with serial dilutions of HSV-1 and incubated for 45 min at 37°C.
Monolayers were exposed to different concentrations (10, 50, 100, 250 and 500 µM) of each peptide for 24 h, and cell viability was evaluated with the LDH assay. There was no significant difference between the viability of cells exposed to the peptides and that of cells exposed to control (data not shown). Thus, we evaluated the antiviral activity of wild type peptides and their analogs in: co-exposure experiments (cell + virus + peptide at zero time); virus pre-treatment (virus + peptide incubation before cell infection); and cell pre-exposure (cell + peptide incubation before virus infection). This would allow to evaluate if, and in which phase, the peptides could inhibit the virus infectivity.
For co-exposure experiments, we incubated the peptides on the monolayers of Vero cells together with the virus inoculum for 45 min before low pH treatment. The reduced form of wild-type hBD1 and hBD3 and analogs 1C, 1 N, 3C, 3N were used in all subsequent experiments. […] No control (peptide excluded) inhibited HSV-1 infectivity under similar experimental conditions.

[3] = cell pre-exposure, peptide 20 µM
[4] = virus pre-incubation, peptide 20 µM
[5] = 0 to 200 mM NaCl, pattern as against P. aeruginosa

| Sequence | antibacterial activity, inhibition by NaCl [1] | antibacterial activity, inhibition by NaCl [2] | antibacterial activity, inhibition by NaCl (P.aeruginosa ATCC 27853) | chemotactic activity compared to wild-type hBD1 (neutrophils) | antibacterial activity at 200 mM NaCl [1] | antibacterial activity at 200 mM NaCl [2] | antibacterial activity at 200 mM NaCl (P.aeruginosa ATCC 27853) | chemotactic activity compared to wild-type hBD1 (monocytes) | % of infectivity (HSV-1; [3]) [%] | % of infectivity (HSV-1; co-exposure, peptide 20 µM) [%] | % of infectivity (HSV-1; [4]) [%] | other results |
| --- | --- | --- | --- | --- | --- | --- | --- | --- | --- | --- | --- | --- |
| DHYNCVSSGGQCLYSACLPKEEQIGKCYRGKAKCCK [1I] | inhibited already by 50 mM NaCl | inhibited already by 50 mM NaCl | inhibited already by 50 mM NaCl | significantly lower activity | – | – | – | – | – | – | – | – |
| DHYNCVSSGGQCLYSACLPKEEQIGKCYRGKRKCCRRKK [1CI] | – | – | – | significantly lower activity | displayed antibacterial activity | displayed antibacterial activity | displayed antibacterial activity | significantly lower | – | – | – | – |
| DHYNCVSSGGQCLYSACPIFTKIQGTCYRGKAKCCK [hBD1 wt, wild type human beta-defensin 1, reference compound] | inhibited already by 50 mM NaCl | inhibited already by 50 mM NaCl | inhibited already by 50 mM NaCl | – | – | – | – | – | 71.3±1.2 | 74.7±2.4 | 65.3±3.8 | chemotactic activity, effect of NaCl (monocytes; 200 mM NaCl): comparable to that obtained at 100 mM NaCl; chemotactic activity, effect of NaCl (monocytes; NaCl between 100 and 150 mM, p<0.001): significantly increased; chemotactic activity, effect of NaCl (neutrophils; NaCl concentrations up to 200 mM): did not significantly affect |
| DHYNCVSSGGQCLYSACPIFTKIQGTCYRGKRKCCRRKK [1C] | – | – | – | comparable to that of hBD1 | – | – | – | significantly lower | 24.1±2.2 | 57.6±1.8 | 40.3±2.6 | antibacterial activity compared to wild-type hBD3, pattern over NaCl concentrations [1, 5]: same pattern of activity; antibacterial activity compared to wild-type hBD3, pattern over NaCl concentrations [2, 5]: same pattern of activity; antibacterial activity compared to wild-type hBD3 (P.aeruginosa ATCC 27853; peptide 2.5 and 12.5 µM, p<0.001): significantly higher; antiviral activity in words (HSV-1; cell pre-exposure treatment, peptide 20 µM): active; inhibition of HSV infectivity (HSV-1; co-exposure): 70% |
| GIINTLDHYNCVSSGGQCLYSACPIFTKIQGTCYRGKAKCCK [1N] | inhibited already by 50 mM NaCl | inhibited already by 50 mM NaCl | inhibited already by 50 mM NaCl | significantly lower activity | – | – | – | comparable to that of wild-type hBD1 | 64.8±3.5 | 73.2±4.2 | 75.6±3.5 | antibacterial activity compared to wild-type hBD3 [1]: significantly higher; antibacterial activity compared to wild-type hBD3 [2]: significantly higher; antibacterial activity compared to wild-type hBD3 (P.aeruginosa ATCC 27853; peptide 12.5 µM, p<0.01): significantly higher |
| GIINTLQKYYCRVRGGRCAVLSCLPKEEQIGKCSTRGAKCCK [3C] | – | – | – | – | – | – | – | – | 50.3±3.4 | 61.7±3.4 | 32.4±4.3 | – |
| GIINTLQKYYCRVRGGRCAVLSCPIFTKIQGTCSTRGAKCCK [3CI] | inhibited already by 50 mM NaCl | inhibited already by 50 mM NaCl | inhibited already by 50 mM NaCl | significantly higher | – | – | – | significantly lower | – | – | – | antibacterial activity compared to wild-type hBD3 [1]: significantly higher; antibacterial activity compared to wild-type hBD3 [2]: significantly higher; antibacterial activity compared to wild-type hBD3 (P.aeruginosa ATCC 27853; peptide 12.5 µM, p<0.01): significantly higher |
| GIINTLQKYYCRVRGGRCAVLSCPIFTKIQGTCSTRGRKCCRRKK [3I] | – | – | – | – | displayed antibacterial activity | displayed antibacterial activity | displayed antibacterial activity | comparable to that of wild-type hBD1 | – | – | – | – |
| QKYYCRVRGGRCAVLSCLPKEEQIGKCSTRGRKCCRRKK [3N] | – | – | – | comparable to that of hBD1 | displayed antibacterial activity | displayed antibacterial activity | displayed antibacterial activity | – | 13.4±4.2 | 20.4±2.4 | 8.5±2.1 | inhibition of HSV infectivity (HSV-1; co-exposure): 90% |
